Experimental data reported in PubChem BioAssay AID1918996 (Molecular Pharmacology Branch, DTP, NCI, 2023).
Values joined by “and” are separate entries in the source; they are usually repeats but may differ in a detail not shown here. Equal values may be shown once.

System: 349418-098-R-PDC complex spheroid growth
Test: Anticancer human tumor 349418-098-R-PDC patient-derived lung adenocarcinoma cell line growth inhibition [AhR]
Details: for viability, T/C: stronger effect = lower value
From the text: Multicellular complex tumor spheroid response to aryl hydrocarbon receptor antagonists in combination with a variety of drugs and investigational agents in selected tumor cell lines
The current study was undertaken to assess response to aryl hydrocarbon receptor antagonists in combination with standard-of-care drugs and investigational agents in solid tumor complex spheroid models. Complex spheroids include a stromal component modeled by human endothelial cells (HUVEC) and fibroblasts modeled by human mesenchymal stem cells (MSCs). The concentration ranges selected for each drug and investigational agent were based upon clinically achievable concentrations if the clinical Cmax of the agent was known.
Compounds. The drugs and investigational agents: BAY 2416964 (NSC825713), GNF351 (NSC835774), CH-223191 (NSC835775), CPI-455 (NSC825282), aza-TdCyd (NSC777586), decitabine (NSC127716), belinostat (NSC758774), entinostat (NSC756642), pevonedistat (NSC761192), tazemetostat (NSC777109), talazoparib (NSC765396), olaparib (NSC753686), selinexor (NSC780203), nedisertib (M3814, NSC802822), bortezomib (NSC756655), venetoclax (NSC766270), doxorubicin (NSC123127), elimusertib (BAY189344, NSC800525), ceralasertib (AZD6738, NSC777638), TAK-243 (NSC785004), alisertib (NSC759677), etoposide (NSC141540), topotecan (NSC609699), eribulin (NSC707389), gemcitabine (NSC613327), carboplatin (NSC241240), cisplatin (NSC119875), and SN-38 (NSC673596) were obtained from the National Cancer Institute (NCI) Developmental Therapeutics Program Chemical Repository (32). The FDA-approved anticancer drug set is available from the Developmental Therapeutics Program at https://dtp.cancer.gov/organization/dscb/obtaining/available plates.htm. […] The stock solutions were prepared in dimethyl sulfoxide (DMSO, Sigma-Aldrich, St. Louis, MO, cat. D2650), except for the platinum compounds which were prepared in saline (Quality Biological, Gaithersburg, MD, cat. 114-055-101), at 800-fold the tested concentration and stored at -70 degrees C prior to their use. All drugs and investigational agents were tested over a range starting from a high concentration at or near the clinical Cmax and decreasing in half-log increments. If the clinical Cmax for an agent had not been determined, the highest concentration tested was 10 microM (Table 1).
Cell Culture. All cells were maintained in an incubator at 37 degrees C and 5% CO2 with 95% humidity. The PDC lines were cultured according to standard operating procedures established by the NCI PDMR (https://pdmr.cancer.gov). Briefly, all PDCs were thawed and cultured in Matrigel-coated flasks prepared with a working solution of 1X Ham's F-12 nutrient mix, without supplementation (Invitrogen, Waltham, MA, cat. 11765054), 100 U/mL penicillin-streptomycin (Invitrogen, cat. 15140122), and 2.5% Matrigel (Corning Inc., Corning, NY, cat. 354248) for the first three passages. All PDCs were cultured in complete DMEM/F-12 media containing advanced DMEM/F-12 (Invitrogen, cat. 12634028), 4.9% defined fetal bovine serum, heat inactivated (HyClone Laboratories Inc., Logan, UT, cat. SH30070.03HI), 389 ng/mL hydrocortisone (Sigma-Aldrich, cat. H4001), 9.7 ng/mL human EGF recombinant protein (Invitrogen, cat. PHG0313), 23.4 microg/mL adenine (Sigma-Aldrich, cat. A2786), 97.3 U/mL penicillin-streptomycin (Invitrogen, cat. 15140122), 1.9 mM L-glutamine (Invitrogen, cat. 25030081), and 9.7 microM Y-27632 dihydrochloride (Tocris Bioscience, Bristol, United Kingdom, cat. 1254). The PDCs were cultured in complete DMEM/F12 media without 10 microM Y-27632 dihydrochloride for at least two passages prior to the screen. The established cell lines NCI-H1341 and […] were cultured in DMEM/F-12, HEPES (Invitrogen, cat. 11330032), 5% defined fetal bovine serum (HyClone Laboratories Inc., cat. SH30070.03), ITS premix universal culture supplement [insulin (5 microg/mL), transferrin (5 microg/mL), and selenious acid (5 ng/mL)] […]

[1] = curve of first compound, second compound 0.1 µM
[2] = curve of first compound, second compound 0.316 µM
[3] = curve of first compound, second compound 1 µM
[4] = curve of first compound, second compound 3.16 µM
[5] = curve of first compound, second compound 10 µM
[6] = second compound 0.1 µM, first compound 0.0316 µM
[7] = second compound 0.1 µM, first compound 0.1 µM
[8] = second compound 0.1 µM, first compound 0.316 µM
[9] = second compound 0.1 µM, first compound 1 µM
[10] = second compound 0.1 µM, first compound 3.16 µM
[11] = second compound 0.1 µM, first compound 10 µM
[12] = second compound 0.316 µM, first compound 0.0316 µM
[13] = second compound 0.316 µM, first compound 0.1 µM
[14] = second compound 0.316 µM, first compound 0.316 µM
[15] = second compound 0.316 µM, first compound 1 µM
[16] = second compound 0.316 µM, first compound 3.16 µM
[17] = second compound 0.316 µM, first compound 10 µM
[18] = second compound 1 µM, first compound 0.0316 µM
[19] = second compound 1 µM, first compound 0.1 µM
[20] = second compound 1 µM, first compound 0.316 µM
[21] = second compound 1 µM, first compound 1 µM
[22] = second compound 1 µM, first compound 3.16 µM
[23] = second compound 1 µM, first compound 10 µM
[24] = second compound 3.16 µM, first compound 0.0316 µM
[25] = second compound 3.16 µM, first compound 0.1 µM
[26] = second compound 3.16 µM, first compound 0.316 µM
[27] = second compound 3.16 µM, first compound 1 µM
[28] = second compound 3.16 µM, first compound 3.16 µM
[29] = second compound 3.16 µM, first compound 10 µM
[30] = second compound 10 µM, first compound 0.0316 µM
[31] = second compound 10 µM, first compound 0.1 µM
[32] = second compound 10 µM, first compound 0.316 µM
[33] = second compound 10 µM, first compound 1 µM
[34] = second compound 10 µM, first compound 3.16 µM
[35] = second compound 10 µM, first compound 10 µM
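Further: spheroids exposed to agents for seven days before luminescence viability read.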
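Wherever viability, T/C is given: spheroids also contain HUVEC endothelial cells and human MSC stroma.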

Compound | IC50 [1] | IC50 [2] | IC50 [3] | IC50 [4] | IC50 [5] | viability, T/C [6] | viability, T/C [7] | viability, T/C [8] | viability, T/C [9] | viability, T/C [10] | viability, T/C [11] | viability, T/C [12] | viability, T/C [13] | viability, T/C [14] | viability, T/C [15] | viability, T/C [16] | viability, T/C [17] | viability, T/C [18] | viability, T/C [19] | viability, T/C [20] | other results
NS(=O)(=O)OCC1CC(n2ccc3c(NC4CCc5ccccc54)ncnc32)CC1O (configuration not stated) + CC(CO)NC(=O)c1cc(-c2ccc(Cl)cc2)nn(-c2cnn(C)c2)c1=O | 188 nM | 149 nM | 107 nM | 49.4 nM | < 31.6 nM | 83.2% | 65.6% | 37.1% | 18.4% | 13.4% | 8.51% | 92.7% | 62.9% | 24.7% | 19.9% | 11.2% | 8.21% | 68.8% | 52.2% | 24.5% | viability, T/C [21]: 16.3%; viability, T/C [22]: 10.8%; viability, T/C [23]: 9.16%; viability, T/C [24]: 54.8%; viability, T/C [25]: 42.6%; viability, T/C [26]: 22.7%; viability, T/C [27]: 14.7%; viability, T/C [28]: 10.7%; viability, T/C [29]: 8.74%; viability, T/C [30]: 33.8%; viability, T/C [31]: 30.9%; viability, T/C [32]: 25.7%; viability, T/C [33]: 16.7%; viability, T/C [34]: 10.9%; viability, T/C [35]: 8.91%
O=C(c1cc(Cc2n[nH]c(=O)c3ccccc23)ccc1F)N1CCN(C(=O)C2CC2)CC1 + CC(CO)NC(=O)c1cc(-c2ccc(Cl)cc2)nn(-c2cnn(C)c2)c1=O | > 10000 nM | 5210 nM | 7430 nM | 3540 nM | 482 nM | 84.2% | 81.6% | 82.8% | 101% | 64.2% | 60.1% | 101% | 101% | 89.7% | 64.4% | 63.6% | 39.2% | 95.5% | 74.4% | 73.7% | viability, T/C [21]: 66.9%; viability, T/C [22]: 59.8%; viability, T/C [23]: 44.8%; viability, T/C [24]: 85.4%; viability, T/C [25]: 87.9%; viability, T/C [26]: 77.9%; viability, T/C [27]: 61.2%; viability, T/C [28]: 55.2%; viability, T/C [29]: 33.7%; viability, T/C [30]: 42.1%; viability, T/C [31]: 60.6%; viability, T/C [32]: 58.6%; viability, T/C [33]: 43.5%; viability, T/C [34]: 38.3%; viability, T/C [35]: 33.7%
COc1cc(Nc2ncc3c(n2)-c2ccc(Cl)cc2C(c2c(F)cccc2OC)=NC3)ccc1C(=O)O + CC(CO)NC(=O)c1cc(-c2ccc(Cl)cc2)nn(-c2cnn(C)c2)c1=O | 92.5 nM | 47.4 nM | 107 nM | 47.3 nM | < 31.6 nM | 66.3% | 49.3% | 33.4% | 37.4% | 31.7% | 23.1% | 58.7% | 33.7% | 29.5% | 29.2% | 28.1% | 26% | 71.9% | 51.3% | 27.8% | viability, T/C [21]: 31.3%; viability, T/C [22]: 29.5%; viability, T/C [23]: 32%; viability, T/C [24]: 55.2%; viability, T/C [25]: 41.3%; viability, T/C [26]: 32.8%; viability, T/C [27]: 28%; viability, T/C [28]: 28.8%; viability, T/C [29]: 29.7%; viability, T/C [30]: 38.4%; viability, T/C [31]: 23.4%; viability, T/C [32]: 32%; viability, T/C [33]: 24.8%; viability, T/C [34]: 20.9%; viability, T/C [35]: 24.2%
CC(C)c1c(-c2ccccc2)nc2c(C#N)c[nH]n2c1=O + Cc1cncc(-c2nc(NCCc3c[nH]c4ccccc34)c3ncn(C(C)C)c3n2)c1 | > 10000 nM | > 10000 nM | > 10000 nM | < 31.6 nM | < 31.6 nM | 102% | 94.6% | 97.9% | 97.2% | 97% | 101% | 96.8% | 82.4% | 105% | 93.2% | 83.3% | 95.2% | 94.1% | 87% | 83.6% | viability, T/C [21]: 85.9%; viability, T/C [22]: 78.6%; viability, T/C [23]: 83.7%; viability, T/C [24]: 15.8%; viability, T/C [25]: 16.5%; viability, T/C [26]: 17.4%; viability, T/C [27]: 12.2%; viability, T/C [28]: 11.3%; viability, T/C [29]: 12.6%; viability, T/C [30]: 0.96%; viability, T/C [31]: 1.33%; viability, T/C [32]: 1.19%; viability, T/C [33]: 0.58%; viability, T/C [34]: 0.81%; viability, T/C [35]: 1.09%
Cn1ncnc1C1c2n[nH]c(=O)c3cc(F)cc(c23)NC1c1ccc(F)cc1 (configuration not stated) |  |  |  |  |  |  |  |  |  |  |  |  |  |  |  |  |  |  |  |  | viability, T/C (compound 0.000316 µM): 100% and 74.1% and 70.2%; viability, T/C (compound 0.001 µM): 102% and 101% and 105%; viability, T/C (compound 0.00316 µM): 99.4% and 111% and 92.2%; viability, T/C (compound 0.01 µM): 93.1% and 74.3% and 87%; viability, T/C (compound 0.0316 µM): 87.6% and 97.2% and 84.1%; viability, T/C (compound 0.1 µM): 90.1% and 98.5% and 63.7%; IC50 (curve of compound): > 100 nM
